Experimental data published in the NIST ThermoML archive (doi:10.1016/j.jct.2012.06.023).

Experiment: xn = mol fraction of the nth substance listed
Conditions: for surface tension liquid-gas: Wilhelmy plate; for viscosity: 101 kPa, Liquid, Concentric cylinders viscometry

CCCCCCCO [heptan-1-ol] + CN(C)C=O
Conditions	surface tension liquid-gas, 298.15 K [mN/m]	surface tension liquid-gas, 303.15 K [mN/m]	surface tension liquid-gas, 308.15 K [mN/m]	surface tension liquid-gas, 313.15 K [mN/m]	viscosity, 298.15 K [mPa·s]	viscosity, 303.15 K [mPa·s]	viscosity, 308.15 K [mPa·s]	viscosity, 313.15 K [mPa·s]
x2 = 0	26.47	25.38	24.33	23.5	5.944	5.069	4.333	3.726
x2 = 0.1852	27.06	25.94	24.87	24.01	3.662	3.061	2.599	2.21
x2 = 0.3466	27.51	26.35	25.25	24.34	2.48	2.044	1.734	1.465
x2 = 0.4928	27.98	26.77	25.64	24.69	1.77	1.452	1.238	1.048
x2 = 0.6004	28.74	27.52	26.38	25.41	1.432	1.183	1.021	0.8722
x2 = 0.6878	29.48	28.25	27.1	26.11	1.224	1.026	0.898	0.7775
x2 = 0.7679	30.53	29.32	28.17	27.17	1.079	0.9233	0.8218	0.7462
x2 = 0.8369	31.64	30.44	29.3	28.3	0.9874	0.8807	0.7949	0.7165
x2 = 0.8984	32.86	31.7	30.57	29.57	0.918	0.8403	0.7775	0.7082
x2 = 0.951	34.06	32.93	31.82	30.82	0.8665	0.8038	0.7541	0.6934

CCCCCO [pentan-1-ol] + CN(C)C=O
Conditions	surface tension liquid-gas, 298.15 K [mN/m]	surface tension liquid-gas, 303.15 K [mN/m]	surface tension liquid-gas, 308.15 K [mN/m]	surface tension liquid-gas, 313.15 K [mN/m]	viscosity, 298.15 K [mPa·s]	viscosity, 303.15 K [mPa·s]	viscosity, 308.15 K [mPa·s]	viscosity, 313.15 K [mPa·s]
x2 = 0	24.55	23.6	22.54	21.94	3.5	3.051	2.664	2.335
x2 = 0.0793	24.71	23.72	22.64	22	2.973	2.585	2.259	1.98
x2 = 0.2866	25.53	24.43	23.31	22.57	1.863	1.608	1.414	1.24
x2 = 0.4261	26.4	25.25	24.11	23.3	1.395	1.205	1.069	0.9427
x2 = 0.5048	27.02	25.85	24.69	23.84	1.241	1.076	0.962	0.8525
x2 = 0.6254	28.21	27.01	25.84	24.94	1.069	0.939	0.8498	0.7611
x2 = 0.6638	28.68	27.48	26.31	25.4	1.021	0.9012	0.8193	0.7366
x2 = 0.7952	30.84	29.66	28.51	27.56	0.9068	0.8182	0.7558	0.6895
x2 = 0.8706	32.34	31.19	30.05	29.08	0.8572	0.797	0.7501	0.6882
x2 = 0.9363	33.8	32.67	31.56	30.58	0.8373	0.783	0.7386	0.6836
